In brackets after ≈: the same amount, converted by molar mass.
What was measured:
[1] = biological target: AF2 neuropeptide receptor; assay: Compound was evaluated for inhibition of binding to Ascaris suum AF2 neuropeptide receptor
Equus caballus = assay: Compound was evaluated for gastric acid suppression on intravenous administration of a single dose up to 7 hr; format: functional, Stomach
Mus musculus = assay: Lethality in mouse, by administering the compound at 200 mg/kg; decreased toxicity; format: functional, organism-based; design: dose 200 mg/kg
Canis familiaris [2] = organism: Canis familiaris; assay: Flea efficacy in dog; format: functional, Canis lupus familiaris
[3] = Oral bioavailability in dog; format: ADME, organism-based, Canis lupus familiaris; settings: in vivo
Felis catus = assay: Percent reduction of fleas on cats by topical application for 1 week; format: functional
Canis familiaris [4] = organism: Canis familiaris; assay: Flea efficacy in dog
[5] = Lethal dose in dog was determined; format: toxicity, organism-based, Canis lupus familiaris; settings: in vivo
[6] = Lethal dose in mouse was determined; format: toxicity, organism-based; settings: in vivo
Canis familiaris [7] = assay: In vivo reduction of flea infestation was determined after an oral administration of 15 mg/kg in dog challenged with 100 fleas at day 4; format: functional, Canis lupus familiaris
Canis familiaris [8] = assay: In vivo reduction of flea infestation was determined after an oral administration of 15 mg/kg in dog challenged with 100 fleas at day 0; format: functional, Canis lupus familiaris
[9] = Lethal concentration of compound was determined against fleas; settings: pulicinae
Canis familiaris [10] = assay: In vivo reduction of flea infestation was determined after an oral administration of 15 mg/kg in dog challenged with 100 fleas at day 8; format: functional, Canis lupus familiaris
Canis familiaris [11] = assay: In vivo reduction of flea infestation was determined after an oral administration of 15 mg/kg in dog challenged with 100 fleas at day 6; format: functional, Canis lupus familiaris
Canis familiaris [12] = organism: Canis familiaris; assay: Minimum dose that cause toxicity in dog; format: functional, Canis lupus familiaris
[13] = Acute toxicity in mice was determined; format: organism-based; settings: mouse, in vivo

For `N=c1sc(-c2ccccn2)nn1-c1c(Cl)cc(Cl)cc1Cl`, which IC50 [1] is on record?
Its IC50 is 3000 nM.

With `COc1ccc2[nH]c([S+]([O-])Cc3ncc(C)c(OC)c3C)nc2c1` (configuration not stated) [OMEPRAZOLE] as the molecule, how does the Inhibition (Equus caballus) read?
Its Inhibition is over 90%.

For `CC[C@@]12C(=O)N(C)[C@@]3(CCC(C)(C)[C@]4(CNc5c4ccc4c5OC=CC(C)(C)O4)C3)CN1CC[C@@]2(C)O`, which Lethality (Mus musculus) is on record?
The Lethality was “decreased toxicity”.

For `C=C(C)[C@H]1C(=O)c2c3c(cc4c5c(n1c24)[C@@]1(C)C(CC[C@H]2[C@](C)(/C=C/C=C(\C)C(=O)N(C)CC)[C@@H](O)CC[C@@]21C)C5)C1=CC(C)(C)OC(C)(C)C1[C@@H]3O` (some centres not stated), which Efficacy (Canis familiaris [2]) is on record?
Its Efficacy is 0.1 µg/mL.

With `CC(C(=O)O)c1ccc2c(c1)[nH]c1ccc(Cl)cc12` (configuration not stated) [CARPROFEN] as the molecule, how does the bioavailability [3] read?
The bioavailability was about 90%.

With `C/C=C(\C)C(=O)O[C@H]1C[C@@H](OC(C)=O)[C@@]2(C(=O)OC)CO[C@H]3[C@@H](O)[C@@](C)([C@]45O[C@@]4(C)[C@@H]4C[C@H]5O[C@@H]5OC=C[C@@]54O)[C@H]4[C@]1(CO[C@]4(O)C(=O)OC)[C@@H]32` [AZADIRACHTIN A] as the molecule, how does the Reduction (Felis catus) read?
Its Reduction is 53%.

Which IC50 [1] does the source give for `N#Cc1ccnc(-c2nn(-c3c(Cl)cc(C(F)(F)F)cc3Cl)c(=N)s2)c1` here?
The IC50 was 10 nM.

For `C=C(C)[C@H]1C(=O)c2c3c(cc4c5c(n1c24)[C@@]1(C)C(CC[C@H]2[C@](C)(/C=C/C=C(\C)C(=O)N4CCN(S(C)(=O)=O)CC4)[C@@H](O)CC[C@@]21C)C5)C1=CC(C)(C)OC(C)(C)C1[C@@H]3O` (some centres not stated) [NODULISPORAMIDE], which Efficacy (Canis familiaris [4]) is on record?
The Efficacy was 0.01 µg/mL.

Which LD50 [5] does the source give for `CN1C(=O)[C@]23CC4CC(C)(C)[C@@]5(C[C@@]41CN2CC[C@@]3(C)O)C(=O)Nc1c5ccc2c1OC=CC(C)(C)O2` (some centres not stated) here?
Its LD50 is 0.5 mg/kg.

What about the LD50 [6] of the same molecule?
The LD50 was under 15 mg/kg.

What does the source list for `C=C(C)[C@H]1C(=O)c2c3c(cc4c5c(n1c24)[C@@]1(C)C(CC[C@H]2[C@](C)(/C=C/C=C(\C)C(=O)O)[C@@H](O)CC[C@@]21C)C5)C1=CC(C)(C)OC(C)(C)C1[C@@H]3O` (some centres not stated) [NOD ACID A]?
Efficacy (Canis familiaris [7]): 97%; Efficacy (Canis familiaris [8]): 99%; LC50 [9]: 0.68 µg/mL (≈ 1 µM); Efficacy (Canis familiaris [10]): 0%; Efficacy (Canis familiaris [11]): 51%; Dose (Canis familiaris [12]): 0.006 mg/kg

For `CO[C@H]1C[C@H](O[C@H]2[C@H](C)O[C@@H](OC3/C(C)=C/CC4C[C@@H](C[C@]5(C=C[C@H](C)[C@@H](C(C)C)O5)O4)OC(=O)[C@@H]4C=C(C)[C@@H](O)[C@H]5OC/C(=C\C=C\[C@@H]3C)[C@]54O)C[C@@H]2OC)O[C@@H](C)[C@@H]1O` (some centres not stated), which LD50 [13] is on record?
Its LD50 is 160 mg/kg.
